In PubChem BioAssay (NCI):
Values joined by “and” are separate entries in the source; they are usually repeats but may differ in a detail not shown here. Identical values can stand only once.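 Protocol summary: plate cells (96-well), add compound at 5 concentrations, incubate 48 h, interpolate endpoints linearly. The concentration for 50% growth inhibition is given as GI50. TGI: concentration producing complete growth inhibition.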

Assays:
Assay in all cases: growth of human tumour cells (NCI), 48 h
HCT-15 colon = tested on: HCT-15 colon
A549 NSCLC = tested on: A549 NSCLC
HOP-62 NSCLC = tested on: HOP-62 NSCLC
RXF 393 renal = tested on: RXF 393 renal
CCRF-CEM leukemia = tested on: CCRF-CEM leukemia
SF-268 CNS = tested on: SF-268 CNS
ACHN renal = tested on: ACHN renal
HOP-92 NSCLC = tested on: HOP-92 NSCLC
SK-MEL-2 melanoma = tested on: SK-MEL-2 melanoma
BT-549 breast = tested on: BT-549 breast

CN1C(=O)CCC1(O)C1C=CC=CC1 (stereo not drawn)
TGI (HCT-15 colon): > 100 µM
TGI (A549 NSCLC): > 100 µM
TGI (HOP-62 NSCLC): > 100 µM
TGI (RXF 393 renal): > 100 µM
TGI (CCRF-CEM leukemia): > 100 µM
TGI (SF-268 CNS): > 100 µM
TGI (ACHN renal): > 100 µM

O=C(Oc1cccc2cccnc12)c1cc2c(cc1Cl)SC(N(c1ccc(F)cc1)S(=O)(=O)c1ccc(Br)s1)=NS2(=O)=O
GI50 (HCT-15 colon): 25.9 µM
TGI (HCT-15 colon): > 100 µM
GI50 (A549 NSCLC): 27.1 µM
TGI (A549 NSCLC): > 100 µM
GI50 (HOP-62 NSCLC): 50.8 µM
TGI (HOP-62 NSCLC): > 100 µM
GI50 (CCRF-CEM leukemia): 30.5 µM
TGI (CCRF-CEM leukemia): > 100 µM
GI50 (HOP-92 NSCLC): 22.5 µM
TGI (HOP-92 NSCLC): 48.5 µM
GI50 (SF-268 CNS): 35.7 µM
TGI (SF-268 CNS): > 100 µM
GI50 (ACHN renal): 33.8 µM
TGI (ACHN renal): > 100 µM
GI50 (SK-MEL-2 melanoma): 34.3 µM
TGI (SK-MEL-2 melanoma): > 100 µM

N#Cc1c(-c2ccc(Cl)c(Cl)c2)c(-c2ccc(Cl)c(Cl)c2)nn(CC(=O)O)c1=O
TGI (HCT-15 colon): > 100 µM
TGI (A549 NSCLC): > 100 µM
TGI (HOP-62 NSCLC): > 100 µM
TGI (RXF 393 renal): 53.9 µM
TGI (CCRF-CEM leukemia): > 100 µM
TGI (HOP-92 NSCLC): > 100 µM
TGI (ACHN renal): > 100 µM
TGI (SK-MEL-2 melanoma): > 100 µM

O=C1NC(Cc2ccc(O)cc2)C(=O)N2CCCC12 (stereo not drawn)
TGI (HCT-15 colon): > 100 µM
TGI (A549 NSCLC): > 100 µM
TGI (HOP-62 NSCLC): > 100 µM
TGI (RXF 393 renal): > 100 µM
TGI (CCRF-CEM leukemia): > 100 µM
TGI (HOP-92 NSCLC): > 100 µM
TGI (SF-268 CNS): > 100 µM
TGI (ACHN renal): > 100 µM
TGI (SK-MEL-2 melanoma): > 100 µM

CC1=Nc2ccccc2S/C1=C(/C)NNS(=O)(=O)c1ccc(C)cc1
TGI (HCT-15 colon): > 100 µM
TGI (A549 NSCLC): > 100 µM
TGI (HOP-62 NSCLC): > 100 µM
TGI (RXF 393 renal): > 100 µM
TGI (CCRF-CEM leukemia): 86.7 µM
TGI (HOP-92 NSCLC): > 100 µM
TGI (SF-268 CNS): > 100 µM
TGI (ACHN renal): > 100 µM
TGI (SK-MEL-2 melanoma): > 100 µM

COc1cc2c(cc1OC)[C@@H](Nc1ccc(C#N)cc1)C1COC(=O)[C@@H]1C2c1cc(OC)c(O)c(OC)c1 (stereo partly drawn)
GI50 (HCT-15 colon): 0.91 µM and 1.39 µM
GI50 (A549 NSCLC): 0.147 µM and 0.1 µM
TGI (A549 NSCLC): 7.31 µM and 4.95 µM
GI50 (HOP-62 NSCLC): 0.0277 µM and 0.0929 µM
TGI (HOP-62 NSCLC): 0.325 µM and 0.492 µM
TGI (RXF 393 renal): 35.9 µM
GI50 (CCRF-CEM leukemia): 0.0111 µM and 0.0152 µM
TGI (CCRF-CEM leukemia): 0.0709 µM and 0.451 µM
TGI (BT-549 breast): 9.78 µM
GI50 (SF-268 CNS): 0.342 µM and 0.663 µM
TGI (ACHN renal): 1.01 µM
GI50 (SK-MEL-2 melanoma): 3.7 µM and 1.49 µM
TGI (SK-MEL-2 melanoma): 23 µM and 5.86 µM

Cc1ccc(S(=O)(=O)OCCn2cnc3nc(NC(=O)c4ccccc4)[nH]c(=O)c32)cc1
TGI (HCT-15 colon): > 100 µM
TGI (A549 NSCLC): > 100 µM
TGI (HOP-62 NSCLC): > 100 µM
TGI (RXF 393 renal): > 100 µM
TGI (CCRF-CEM leukemia): > 100 µM
TGI (HOP-92 NSCLC): > 100 µM
TGI (SF-268 CNS): > 100 µM
TGI (ACHN renal): > 100 µM
TGI (SK-MEL-2 melanoma): > 100 µM

CN(C)C=Nc1ccn(CCO)c(=O)n1
TGI (HCT-15 colon): > 100 µM
TGI (A549 NSCLC): > 100 µM
TGI (HOP-62 NSCLC): > 100 µM
TGI (RXF 393 renal): > 100 µM
TGI (CCRF-CEM leukemia): > 100 µM
TGI (SF-268 CNS): > 100 µM
TGI (ACHN renal): > 100 µM
TGI (SK-MEL-2 melanoma): > 100 µM

N#Cc1cccc2c1Nc1ccccc1S2
TGI (HCT-15 colon): > 100 µM
TGI (A549 NSCLC): > 100 µM
TGI (HOP-62 NSCLC): > 100 µM
TGI (RXF 393 renal): > 100 µM
TGI (CCRF-CEM leukemia): > 100 µM
TGI (HOP-92 NSCLC): 92.3 µM
TGI (SF-268 CNS): > 100 µM
TGI (ACHN renal): > 100 µM
TGI (SK-MEL-2 melanoma): > 100 µM

Cc1cc(S(=O)(=O)Nc2nc3ccccc3o2)c(SCc2ccccc2)cc1Cl
GI50 (HCT-15 colon): 21.5 µM
TGI (HCT-15 colon): 52.8 µM
GI50 (A549 NSCLC): 21.7 µM
TGI (A549 NSCLC): 45.3 µM
GI50 (HOP-62 NSCLC): 28.5 µM
TGI (HOP-62 NSCLC): > 100 µM
GI50 (RXF 393 renal): 29.5 µM
TGI (RXF 393 renal): 61.5 µM
GI50 (BT-549 breast): 30.5 µM
TGI (BT-549 breast): 79.3 µM
GI50 (HOP-92 NSCLC): 4.65 µM
TGI (HOP-92 NSCLC): 20.9 µM
GI50 (SF-268 CNS): 18.9 µM
TGI (SF-268 CNS): 47.7 µM
GI50 (ACHN renal): 17.9 µM
TGI (ACHN renal): 38.4 µM
GI50 (SK-MEL-2 melanoma): 48.6 µM
TGI (SK-MEL-2 melanoma): > 100 µM

C[C@@H](NC1CCCC[C@H]1O)c1ccccc1 (stereo partly drawn)
TGI (HCT-15 colon): > 100 µM
TGI (A549 NSCLC): > 100 µM
TGI (HOP-62 NSCLC): > 100 µM
TGI (RXF 393 renal): > 100 µM
TGI (CCRF-CEM leukemia): > 100 µM
TGI (HOP-92 NSCLC): > 100 µM
TGI (SF-268 CNS): > 100 µM
TGI (ACHN renal): > 100 µM
TGI (SK-MEL-2 melanoma): > 100 µM

COc1ccc(C/C(=N/O)C(=O)NCCc2cc(Br)c(OCCCN(C)C)c(Br)c2)cc1Br
TGI (A549 NSCLC): 38.4 µM
TGI (HOP-62 NSCLC): 30 µM
TGI (RXF 393 renal): 38.5 µM
TGI (SF-268 CNS): 39.4 µM
TGI (ACHN renal): 30 µM
TGI (SK-MEL-2 melanoma): 37.4 µM

COP(=O)(OC)C(=O)N1N(c2ccc([N+](=O)[O-])cc2)C(=O)C(C)NC1(NNc1ccc([N+](=O)[O-])cc1)P(=O)(OC)OC (stereo not drawn)
TGI (HCT-15 colon): > 100 µM
TGI (A549 NSCLC): > 100 µM
TGI (HOP-62 NSCLC): > 100 µM
TGI (CCRF-CEM leukemia): > 100 µM
TGI (HOP-92 NSCLC): > 100 µM
TGI (SF-268 CNS): > 100 µM
TGI (ACHN renal): > 100 µM
TGI (SK-MEL-2 melanoma): > 100 µM

N.N.N.N.N.[Co+3].[I-].[N-]=[N+]=[N-]
GI50 (HCT-15 colon): > 100 µM
TGI (HCT-15 colon): > 100 µM
GI50 (A549 NSCLC): > 100 µM
TGI (A549 NSCLC): > 100 µM
GI50 (HOP-62 NSCLC): > 100 µM
TGI (HOP-62 NSCLC): > 100 µM
GI50 (CCRF-CEM leukemia): > 100 µM
TGI (CCRF-CEM leukemia): > 100 µM
GI50 (HOP-92 NSCLC): > 100 µM
TGI (HOP-92 NSCLC): > 100 µM
GI50 (SF-268 CNS): > 100 µM
TGI (SF-268 CNS): > 100 µM
GI50 (ACHN renal): > 100 µM
TGI (ACHN renal): > 100 µM
GI50 (SK-MEL-2 melanoma): > 100 µM
TGI (SK-MEL-2 melanoma): > 100 µM

O=C1C2Nc3ccccc3SC2C(=O)N1c1ccc(Br)cc1 (stereo not drawn)
TGI (HCT-15 colon): > 100 µM
TGI (A549 NSCLC): > 100 µM
TGI (HOP-62 NSCLC): 55.1 µM
TGI (RXF 393 renal): 61.8 µM
TGI (HOP-92 NSCLC): 33.2 µM
TGI (SF-268 CNS): > 100 µM
TGI (ACHN renal): > 100 µM
TGI (SK-MEL-2 melanoma): > 100 µM

c1cc(NNc2cccc(-c3nn[nH]n3)c2)cc(-c2nn[nH]n2)c1
TGI (HCT-15 colon): > 100 µM
TGI (A549 NSCLC): > 100 µM
TGI (HOP-62 NSCLC): > 100 µM
TGI (RXF 393 renal): > 100 µM
TGI (BT-549 breast): > 100 µM
TGI (HOP-92 NSCLC): > 100 µM
TGI (SF-268 CNS): > 100 µM
TGI (ACHN renal): > 100 µM
TGI (SK-MEL-2 melanoma): > 100 µM

CC(C)OP(=O)(OC(C)C)/C(Cl)=N/Nc1ccc([N+](=O)[O-])cc1
TGI (HCT-15 colon): > 100 µM
TGI (A549 NSCLC): > 100 µM
TGI (HOP-62 NSCLC): > 100 µM
TGI (CCRF-CEM leukemia): > 100 µM
TGI (HOP-92 NSCLC): > 100 µM
TGI (SF-268 CNS): > 100 µM
TGI (ACHN renal): > 100 µM
TGI (SK-MEL-2 melanoma): > 100 µM

O=C(NCCCCCCCCCCCCNC(=O)c1cccc2ccccc12)c1cccc2ccccc12
TGI (HCT-15 colon): > 100 µM
TGI (A549 NSCLC): > 100 µM
TGI (HOP-62 NSCLC): 30.4 µM
TGI (RXF 393 renal): > 100 µM
TGI (CCRF-CEM leukemia): > 100 µM
TGI (HOP-92 NSCLC): > 72.1 µM
TGI (SF-268 CNS): > 100 µM
TGI (ACHN renal): > 100 µM
TGI (SK-MEL-2 melanoma): > 100 µM

c1ccc2sc(SCCSc3nc4ccccc4s3)nc2c1
TGI (HCT-15 colon): > 100 µM
TGI (A549 NSCLC): > 100 µM
TGI (HOP-62 NSCLC): > 100 µM
TGI (RXF 393 renal): > 100 µM
TGI (BT-549 breast): > 100 µM
TGI (HOP-92 NSCLC): > 100 µM
TGI (SF-268 CNS): > 100 µM
TGI (ACHN renal): > 100 µM
TGI (SK-MEL-2 melanoma): > 100 µM

C/C(=C1/N=C(c2cc([N+](=O)[O-])ccc2Cl)N(c2cccc(C)c2)C1=O)c1cc2ccccc2oc1=O
TGI (HCT-15 colon): > 100 µM
TGI (A549 NSCLC): > 100 µM
TGI (HOP-62 NSCLC): > 100 µM
TGI (RXF 393 renal): > 100 µM
TGI (CCRF-CEM leukemia): > 100 µM
TGI (HOP-92 NSCLC): > 100 µM
TGI (SF-268 CNS): > 100 µM
TGI (ACHN renal): > 100 µM
TGI (SK-MEL-2 melanoma): > 100 µM

COC(=O)CC(NC(=O)OCc1ccccc1)C(C(C)=O)C(=O)OCc1ccccc1 (stereo not drawn)
TGI (HCT-15 colon): > 31.6 µM
TGI (A549 NSCLC): > 31.6 µM
TGI (CCRF-CEM leukemia): > 31.6 µM
TGI (HOP-92 NSCLC): > 31.6 µM
TGI (SF-268 CNS): > 31.6 µM
TGI (ACHN renal): > 31.6 µM
